# Assay results taken from patent publication US10259846B2, “Bouvardin derivatives and therapeutic uses thereof” (The Regents of the University of Colorado, a body corporate, priority 2012, dated 2019).
# Where two headings read alike, the source gives them in different places.
# Assays:
# T98G glioma cells = test: Cell growth assay (CellTiter-Glo), T98G glioma cells; assay type: cell-based; conditions: for inhibitory effects on cell growth: single agent, 10 μM and 100 μM, 6 days (FIG. 11)
# Method: (§1) Two glioma cell lines were used (U87MG and T98G). The growth inhibitory effects of chemical compounds were evaluated using CellTiter-Glo® Luminescent Cell Viability Assay (Promega G7570). The CellTiter-Glo® Reagent lyses cells and generates a luminescent signal proportional to the amount of ATP present. In this assay, 4,000 viable cells were plated in 100 μL of growth medium in 96-well plates (Corning). Following an overnight incubation, drugs were added in varying concentrations and incubated for 6 days. 100 μL of CellTiter-Glo® Reagent was added to each well. Plates were incubated with mixing at room temperature for 30 minutes. Luminescence of each well was measured using an automated plate reader.
# U87MG glioma cells = test: Cell growth assay (CellTiter-Glo), U87MG glioma cells; assay type: cell-based; conditions: single agent; 10 μM and 100 μM; 6 days (FIG. 10)
# Method: as §1
# rabbit reticulocytes = test: In vitro translation assay (luciferase mRNA); assay type: biochemical; conditions: luciferase activity; 15 minutes at 37° C.
# Method: In vitro translation assays were performed in rabbit reticulocytes (Promega) according to manufacturer's instruction, in the presence or absence of drug at final concentrations shown. Luciferase mRNA provided in the kit was used at a final concentration of 1 μg/μl. The reaction samples were incubated for 15 minutes at 37° C. and quenched by dilution with water. Luciferase activity was measured using a plate reader Multi-Mode Microplate Reader (Synergy 2 by BioTek) immediately after luciferase substrate addition.
# HS294T melanoma cells [1] = test: Clonogenic assay (sulfhorhodamine B), HS294T; assay type: cell-based, human
# Method: HS294T melanoma cells were plated at a low concentration to allow for the formation of single colonies. These cells were then treated with meta Br-N-29-H RA-VII alone, PLX4032 alone and a combination of the two and then processed using the quantitative sulfhorhodamine B assay.
# mice = conditions: cited from earlier work
# HS294T melanoma cells [2] = test: Exposure-time cell viability assay, HS294T; assay type: cell-based, human; conditions: IC70 concentration; viability read after 5 days
# Method: (§2) The cell growth assays used to measure IC50 and synergy involve leaving the drug on the cells for 5 days. However, this length of time may or may not be necessary to see efficacy. To address this, two Bouvardin derivatives (meta Br-N-29-H RA-VII and mera Cl-N-29-H RA-VII) were exposed to different melanoma and head and neck cells for various amounts of time. Cells were plated at 4,000 cells per well in 96 well plates and allowed to adhere for 24 hrs before adding meta Br-N-29-H RA-VII or meta Cl-N-29-H RA-VII at an IC70 concentration for each cell line. The drug was removed after various times (12 hr, 1 day, 2 days, 3 days, 4 days) by replacement with fresh media. After 5 days, cell viability was determined using CellTiter-Glo® Luminescent Cell Viability Assay (Promega G7570), which measures ATP levels. Bouvardin or BVD at 12 hr exposure was used as a control. […] While the maximal effect of meta Br-N-29-H RA-VII was not reached at the same time for all of the lines, the drug is affecting each cell line to some degree by 24 hrs.
# HS294T melanoma cells [3] = test: Combination with ionizing radiation, combination index, HS294T; assay type: cell-based, human; conditions: range of drug doses and radiation
# Excerpt: CI values are shown for a range of drug doses and radiation. CI<1 indicates synergy.
# [4] = test system: FaDu Head and Neck cancer cells; test: Exposure-time cell viability assay, FaDu; assay type: cell-based, human; conditions: IC70 concentration; viability read after 5 days
# Method: as §2
# 1205Lu melanoma cells = test: Exposure-time cell viability assay, 1205Lu; assay type: cell-based, human; conditions: IC70 concentration; viability read after 5 days
# Method: as §2
# [5] = test system: A375 (higher grade) melanoma cell line; test: Cell growth assay IC50, A375 melanoma cell line; assay type: cell-based, human
# Method: as §1, with “Seven cell lines, lung cancer cell line H157, HNC” for “Two glioma”, “lines Det562 and FaDu, and melanoma cell lines WM35, A375, 1205Lu and HS294T” for “lines”, “studied.” for “used (U87MG and T98G).”, “˜4,000” for “4,000”, “reader. Survival was plotted against drug concentration to compute IC50.” for “reader.”
# (§3) The ability of bouvardin and meta Br-N-29-H RA-VII to inhibit the growth of Melanoma cells in culture was studied. […] Both compounds show greater efficacy in higher grade, metastatic melanoma cell lines than in a lower grade melanoma line.
# [6] = Combination Index from cell growth assays with targeted agents (FIG. 22); assay type: cell-based; conditions: over a range of FA (fraction affected)
# Method: The combinations of meta Br-N-29-H RA-VII and three commercially available targeted agents (PLX4032 BRAF inhibitor, TAK-333 MEK inhibitor and PF-0491502 P13K/TOR dual inhibitor) were tested at various drug doses. Combination Index values were computed from cell growth assays as previously described (Gladstone et al., Disease Models and Mechanisms, 2012, PMID: 22344740). The tables show average CI values for the combination of meta Br-N-29-H RA-VII and each targeted agent. FA=‘fraction affected’ or fraction of cells killed, reflecting the drug doses used. The CI values that indicate three modes on drug-drug interaction are indicated in the legend and differentially shaded in the table. CI˜1 denote additive action (un-shaded). CI>1 denote antagonistic action (darker shade).
# [7] = test system: HS294T metastatic melanoma cells; test: Combination with PLX4032, combination index, HS294T; assay type: cell-based, human; conditions: combination with PLX4032, wide range of drug concentrations
# Excerpt: The dotted line indicates fraction survival expected if meta Br-N-29-H RA-VII and PLX4032 are act in an additive manner. The observed effect of the combination is […], indicating synergy. This represents a subset of a larger data set that includes the result of a wide range of drug doses. The complete dataset is in FIGS. 16 and 17.
# CI of less than 1 indicates synergy, which is seen for a wide range of drug concentrations. […] This illustrates that at doses that show synergy, significant fractions of cells are killed or inhibited from growing.
# A375 melanoma cells = test: Exposure-time cell viability assay, A375; assay type: cell-based, human; conditions: IC70 concentration; viability read after 5 days
# Method: as §2
# Melanoma cells = test: Growth inhibition of Melanoma cells in culture, alone and combined; assay type: cell-based, human
# Excerpt: as §3
# Synergy is seen in cell lines with a wide range of sensitivity to PLX4032, i.e. both PLX4032-sensitive and PLX4032-resistant lines.
# [8] = test system: WM35 (lower grade, radial phase) melanoma cell line; test: Cell growth assay IC50, WM35 melanoma cell line; assay type: cell-based, human
# Method: as §1, with “Seven cell lines, lung cancer cell line H157, HNC” for “Two glioma”, “lines Det562 and FaDu, and melanoma cell lines WM35, A375, 1205Lu and HS294T” for “lines”, “studied.” for “used (U87MG and T98G).”, “˜4,000” for “4,000”, “reader. Survival was plotted against drug concentration to compute IC50.” for “reader.”
# as §3
# [9] = test system: Det562 Head and Neck cancer cells; test: Exposure-time cell viability assay, Det562; assay type: cell-based, human; conditions: IC70 concentration; viability read after 5 days
# Method: as §2
# [10] = test system: human primary fibroblasts; test: Bouvardin on primary versus oncogene-transformed human fibroblasts; assay type: cell-based; conditions: fibroblasts transformed with more and more oncogenes (FIG. 16)
# [11] = test system: human primary fibroblasts; conditions: published report (Dolma et al., 2003); cited from earlier work
# [12] = combination of meta Br-N-29-H RA-VII and PLX4032
compound,measurement,setting,value
COc1ccc(C[C@H](NC(=O)[C@H](Cc2ccc(O)cc2)N(C)C(=O)OC(C)(C)C)C(=O)OCc2ccccc2)cc1Br [Compound 1-7],inhibitory effects on cell growth,T98G glioma cells,potent inhibitory effects
same,inhibitory effects on cell growth,U87MG glioma cells,potent inhibitory effects
same,inhibition of protein translation in in vitro translation assay,rabbit reticulocytes,do not appear to inhibit protein translation
COc1ccc(C[C@H](NC(=O)[C@H](Cc2ccc(O)cc2)N(C)C(=O)OC(C)(C)C)C(=O)OCc2ccccc2)cc1B1OC(C)(C)C(C)(C)O1 [Compound 1-8],inhibitory effects on cell growth,T98G glioma cells,potent inhibitory effects
same,inhibitory effects on cell growth,U87MG glioma cells,potent inhibitory effects
same,inhibition of protein translation in in vitro translation assay,rabbit reticulocytes,do not appear to inhibit protein translation
COc1ccc(C[C@H](NC(=O)[C@H](Cc2ccc(O)cc2)N(C)C(=O)OC(C)(C)C)C(=O)OCc2ccccc2)cc1B(O)O [Compound 1-9],inhibitory effects on cell growth,T98G glioma cells,potent inhibitory effects
same,inhibitory effects on cell growth,U87MG glioma cells,potent inhibitory effects
same,inhibition of protein translation in in vitro translation assay,rabbit reticulocytes,do not appear to inhibit protein translation
"CCCS(=O)(=O)Nc1ccc(F)c(C(=O)c2c[nH]c3ncc(-c4ccc(Cl)cc4)cc23)c1F [PLX4032, Vemurafenib, reference compound]",survival compared to untreated cells,"HS294T melanoma cells [1]; 500 nM, alone",around 60%
COc1cccc2c1C(=O)c1c(O)c3c(c(O)c1C2=O)C[C@@](O)(C(=O)CO)C[C@@H]3O[C@H]1C[C@H](N)[C@H](O)[C@H](C)O1 [doxorubicin],LD50,mice,12.5 mg/kg
COc1ccc(C[C@H]2C(=O)N[C@@H](C)C(=O)N(C)[C@H]3Cc4ccc(cc4)Oc4cc(c(Br)cc4OC)C[C@H](NC3=O)C(=O)N[C@H](C)C(=O)N[C@@H](C)C(=O)N2C)cc1 [meta Br-N-29-H RA-VII],survival compared to untreated cells,"HS294T melanoma cells [1]; 20 nM, alone",greater than 90%
same,predicted survival if the two treatments were additive,HS294T melanoma cells [1]; [12],50%
same,survival compared to untreated cells,HS294T melanoma cells [1]; [12],less than 20%
same,response in cell growth assay,T98G glioma cells; T98G glioma cells (FIG. 12),dose-dependent response
same,exposure time to maximal response (same as 5 day),HS294T melanoma cells [2],3 to 4 days
same,response at 12 hr exposure,HS294T melanoma cells [2],partial response
same,interaction with ionizing radiation (combination index; CI<1 indicates synergy),HS294T melanoma cells [3],shows synergy
same,exposure time to maximal response,[4],4 days
same,response at 12 hr exposure,[4],no response
same,exposure time to maximal response (same as 5 day),1205Lu melanoma cells,4 days
same,response at 12 hr exposure,1205Lu melanoma cells,partial response
same,IC50,"[5]; Homo sapiens, A-375",0.1 µM
same,interaction (average Combination Index) with PF-0491502 P13K/TOR dual inhibitor,[6],displays synergy
same,interaction (average Combination Index) with PLX4032 BRAF inhibitor,[6],displays synergy
same,interaction (average Combination Index) with TAK-333 MEK inhibitor,[6],displays synergy
same,interaction with PLX4032 (combination index; CI of less than 1 indicates synergy),[7],synergize
same,exposure time to maximal response (same as 5 day),A375 melanoma cells,2 to 3 days
same,response at 12 hr exposure,A375 melanoma cells,partial response
same,inhibition of protein translation in in vitro translation assay,rabbit reticulocytes,dose-dependent response
same,times less effective (greater IC50) than bouvardin,Melanoma cells; Melanoma cells,5 to 10 times
same,synergy with BRAF inhibitor Vemurafenib (PLX4032),"Melanoma cells; combination, PLX4032-sensitive and PLX4032-resistant lines",synergizes best and over a wide range of meta Br-N-29-H RA-VII doses
same,IC50,[8]; Homo sapiens,1.17 µM
same,exposure time to maximal response,[9],4 days
same,response at 12 hr exposure,[9],partial response
bouvardin,"IC, for bouvardin",[10],decreases as human primary fibroblasts are transformed with more and more oncogenes
same,LD50,mice,12.4 mg/kg
same,IC50,[5],0.012 µM
same,IC50 in primary human cells versus transformed cells,[11],higher IC50 (lower efficacy) in primary human cells than in transformed cells
same,IC50,[8],0.124 µM
